Measured values: PubChem BioAssay (NCI)
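Briefly, cells in 96-well plates were exposed to five compound concentrations for 48 h, and endpoints were estimated by linear interpolation. At the TGI there is no net growth.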

How the values were obtained:
Test in all cases: growth of human tumour cells (NCI), 48 h
[1] = tested on: HS 578T breast
[2] = tested on: HOP-62 NSCLC
[3] = tested on: SK-MEL-2 melanoma
[4] = tested on: IGROV1 ovarian
[5] = tested on: OVCAR-8 ovarian
[6] = tested on: LOX IMVI melanoma
[7] = tested on: NCI/ADR-RES ovarian
[8] = tested on: SF-539 CNS
[9] = tested on: UACC-62 melanoma
[10] = tested on: SN12C renal
[11] = tested on: CCRF-CEM leukemia
[12] = tested on: UO-31 renal
[13] = tested on: MOLT-4 leukemia
[14] = tested on: RXF 393 renal
[15] = tested on: HL-60(TB) leukemia

Row | SMILES | TGI [1] | TGI [2] | TGI [3] | TGI [4] | TGI [5] | TGI [6] | TGI [7] | TGI [8] | TGI [9] | TGI [10] | TGI [11] | TGI [12] | TGI [13] | TGI [14] | TGI [15]
1 | CO[C@]12CC(=O)C3(C(C[C@H]4CC5CC[C@H]6C[C@@H](OC(C)=O)CC[C@]6(OC(C)=O)C5C[C@@]43C)C1)C1C[C@H]3[C@@H]4CC[C@H]5C[C@@H](OC(C)=O)CC[C@]5(OC(C)=O)[C@H]4CC[C@]3(C)C12 (stereo not given in full) | > 100 µM | > 100 µM | > 100 µM | > 100 µM | > 100 µM | > 100 µM | > 100 µM | > 100 µM | > 100 µM | > 100 µM | > 100 µM | > 100 µM | > 100 µM | – | –
2 | CC(=O)O[C@H]1C[C@](C)(O)[C@@]23CC([C@@H](OC(=O)C(C)(C)O)[C@@H](OC(C)=O)C2(COC(=O)c2ccccc2)[C@H]1OC(C)=O)C(C)(C)O3 (stereo not given in full) | > 100 µM | > 100 µM | > 100 µM | > 100 µM | > 100 µM | > 100 µM | > 100 µM | > 100 µM | > 100 µM | > 100 µM | > 100 µM | > 100 µM | > 100 µM | > 100 µM | –
3 | CN(C)CC1CCCc2ccccc2C1=O (stereo not given) | 16.3 µM | 33.7 µM | 4 µM | 4.17 µM | 4.29 µM | 4.49 µM | 17.5 µM | 10.1 µM | 6.18 µM | 24.2 µM | – | 3.45 µM | – | 11.7 µM | –
4 | C[C@@]12C[C@@H](c3ccccc3O1)N1Cc3ccccc3CSC1=N2 | > 100 µM | > 100 µM | > 100 µM | > 100 µM | > 100 µM | > 100 µM | > 100 µM | > 100 µM | > 100 µM | > 100 µM | – | > 100 µM | > 100 µM | > 100 µM | –
5 | COc1cc(S(=O)(=O)Nc2ccc(-c3csc(N4C(=O)C(C)SC4c4ccccc4)n3)cc2)ccc1Cl (stereo not given) | > 100 µM | – | 21.5 µM | > 100 µM | > 100 µM | > 100 µM | > 100 µM | > 100 µM | 52.8 µM | > 100 µM | > 100 µM | > 100 µM | > 100 µM | 47.4 µM | 47.7 µM
6 | O=S(c1ccc(Cl)cc1)c1ccccc1C1=NCCN1 (stereo not given) | > 100 µM | > 100 µM | > 100 µM | > 100 µM | > 100 µM | – | > 100 µM | – | > 100 µM | > 100 µM | > 100 µM | > 100 µM | > 100 µM | > 100 µM | > 100 µM
7 | CN(C)C=NCC(O)c1ccccc1 (stereo not given) | > 100 µM | > 100 µM | > 100 µM | > 100 µM | – | > 100 µM | > 100 µM | > 100 µM | > 100 µM | > 100 µM | > 100 µM | > 100 µM | > 100 µM | > 100 µM | > 100 µM
8 | O=C(CC(c1ccccc1)C(C(=O)c1ccncc1)C(CC(=O)c1ccncc1)c1ccccc1)c1ccncc1 (stereo not given) | > 100 µM | > 100 µM | > 100 µM | > 100 µM | > 100 µM | > 100 µM | > 100 µM | – | > 100 µM | – | > 100 µM | > 100 µM | > 100 µM | – | > 100 µM
